In patent publication US20230075856A1, “CYCLIC SULFAMIDE COMPOUNDS FOR TREATMENT OF HBV” (Assembly Biosciences, Inc., priority 2018, published 2023):

What follows are compounds tested on HBV viral load production from HepAD38 cells (assay: Viral production from HepAD38 cells: viral load in supernatant by qPCR of the HBV core sequence). Settings: 5 days incubation, qPCR of supernatant HBV DNA vs DMSO control, read-out: viral load lowering EC50 (Activity).
Assay type: cell-based
Procedure, shortened: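 Viral load was measured by qPCR of the HBV core region in supernatant, quantified against DNA standards and compared with DMSO wells. Cells (50,000/well, tetracycline withdrawn, 2% FBS) received compound from 10 μM final for 5 days; EC50 from four-parameter nonlinear regression.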
In the case of `COc1ccccc1-c1ncc(CNC(=O)C2CC(C(=O)Nc3ccc(F)c(Cl)c3)N(C)S(=O)(=O)N2)s1` (single isomer, unassigned) [Compound 987-ISOMER-B, N3-(3-chloro-4-fluoro-phenyl)-N5-[[2-(2-methoxyphenyl)thiazol-5-yl]methyl]-2-methyl-1,1-dioxo-1,2,6-thiadiazinane-3,5-dicarboxamide], the EC50 is reported as 100 to 10000 nM. `CN1C(C(=O)Nc2ccc(F)c(Cl)c2)CC(C(=O)NC2CCN(c3ncccn3)CC2)NS1(=O)=O` (single isomer, unassigned) [Compound 855-ISOMER-B, N3-(3-chloro-4-fluoro-phenyl)-2-methyl-1,1-dioxo-N5-(1-pyrimidin-2-yl-4-piperidyl)-1,2,6-thiadiazinane-3,5-dicarboxamide] was tested, and the EC50 was 100 to 10000 nM. `CN1C(C(=O)Nc2ccc(F)c(Cl)c2)CC(C(=O)NC(c2ccccc2)c2ccccc2)NS1(=O)=O` (single isomer, unassigned) [1014-ISOMER-B, N5-benzhydryl-N3-(3-Chloro-4-fluoro-phenyl)-2-methyl-1,1-dioxo-1,2,6-thiadiazinane-3,5-dicarboxamide] was tested, and the EC50 was 100 to 10000 nM. Work on `Cc1cc(CNC(=O)C2CC(C(=O)Nc3ccc(F)c(Cl)c3)N(C)S(=O)(=O)N2)n(C)n1` (single isomer, unassigned) [Compound 482-ISOMER-B, N3-(3-chloro-4-fluoro-phenyl)-N5-[(2,5-dimethylpyrazol-3-yl)methyl]-2-methyl-1,1-dioxo-1,2,6-thiadiazinane-3,5-dicarboxamide] yielded an EC50 of 100 to 10000 nM. With `CC(C)OC1CCC(NC(=O)C2CC(C(=O)Nc3ccc(F)c(Cl)c3)N(C)S(=O)(=O)N2)CC1` (single isomer, unassigned) [Compound 862-ISOMER-B, N3-(3-chloro-4-fluoro-phenyl)-N5-(4-isopropoxycyclohexyl)-2-methyl-1,1-dioxo-1,2,6-thiadiazinane-3,5-dicarboxamide] the EC50 was < 50 nM. For `CN1C(C(=O)Nc2ccc(F)c(Cl)c2)CC(C(=O)NCc2cc(-c3ccc(F)cc3)nn2C)NS1(=O)=O` (single isomer, unassigned) [1143-ISOMER-B, N3-(3-chloro-4-fluoro-phenyl)-N5-[[5-(4-fluorophenyl)-2-methyl-pyrazol-3-yl]methyl]-2-methyl-1,1-dioxo-1,2,6-thiadiazinane-3,5-dicarboxamide], the EC50 was < 50 nM. `CN1C(C(=O)Nc2ccc(F)c(Cl)c2)CC(C(=O)NCc2cnc(C(F)(F)F)s2)NS1(=O)=O` (single isomer, unassigned) [Compound 498-ISOMER-B, N3-(3-chloro-4-fluoro-phenyl)-2-methyl-1,1-dioxo-N5-[[2-(trifluoromethyl)thiazol-5-yl]methyl]-1,2,6-thiadiazinane-3,5-dicarboxamide] was tested, and the EC50 was 50 to 100 nM.

Same assay, conditions: Hepatitis B virus, HePAD38, 120 h, 5 days incubation, qPCR of supernatant HBV DNA vs DMSO control, read-out: viral load lowering EC50 (Activity)
`CN1C(C(=O)Nc2ccc(F)c(Cl)c2)CC(C(=O)NCc2csc(-c3ccc(OCCN4CCCCC4)cc3)n2)NS1(=O)=O` (single isomer, unassigned) [Compound 957-ISOMER-A, N3-(3-chloro-4-fluoro-phenyl)-2-methyl-1,1-dioxo-N5-[[2-[4-[2-(1-piperidyl)ethoxy]phenyl]thiazol-4-yl]methyl]-1,2,6-thiadiazinane-3,5-dicarboxamide] was tested, and the EC50 was < 50 nM. In the case of `CN1C(C(=O)Nc2ccc(F)c(Cl)c2)CC(C(=O)NCc2cc(-c3ccccc3Cl)no2)NS1(=O)=O` (centres unmarked) [Compound 1025], the EC50 is reported as < 50 nM. `CN1C(C(=O)Nc2ccc(F)c(Cl)c2)CC(C(=O)NCc2ccccc2-n2ccnc2)NS1(=O)=O` (single isomer, unassigned) [Compound 910-ISOMER-B, N3-(3-chloro-4-fluoro-phenyl)-N5-[(2-imidazol-1-ylphenyl)methyl]-2-methyl-1,1-dioxo-1,2,6-thiadiazinane-3,5-dicarboxamide] was tested, and the EC50 was 100 to 10000 nM. `CN1C(C(=O)Nc2ccc(F)c(Cl)c2)CC(C(=O)NCCC2CCCO2)NS1(=O)=O` (centres unmarked) [Compound 1161] showed an EC50 of 100 to 10000 nM. For `Cc1nc(CNC(=O)C2CC(C(=O)Nc3ccc(F)c(Cl)c3)N(C)S(=O)(=O)N2)sc1-c1ccccc1` (centres unmarked) [Compound 1070], the EC50 was < 50 nM. Compound `Cc1ncc(CNC(=O)C2CC(C(=O)Nc3ccc(F)c(Cl)c3)N(CC(F)(F)F)S(=O)(=O)N2)s1` (single isomer, unassigned) [Compound 891-ISOMER-A, N3-(3-chloro-4-fluoro-phenyl)-N5-[(2-methylthiazol-5-yl)methyl]-1,1-dioxo-2-(2,2,2-trifluoroethyl)-1,2,6-thiadiazinane-3,5-dicarboxamide] has an EC50 of 100 to 10000 nM. Work on `Cc1c(CNC(=O)C2CC(C(=O)Nc3ccc(F)c(C#N)c3)N(C)S(=O)(=O)N2)cnn1C` (centres unmarked) [Compound 838] yielded an EC50 of 100 to 10000 nM. `CN1C(C(=O)Nc2ccc(F)c(Cl)c2)CC(C(=O)Nc2cccc3cnccc23)NS1(=O)=O` (centres unmarked) [Compound 485] was tested, and the EC50 was < 50 nM. With `CN1C(C(=O)Nc2ccc(F)c(Cl)c2)CC(C(=O)N[C@@H]2CCN(c3ccnc(Cl)c3)C2)NS1(=O)=O` (some centres unmarked) [Compound 1055-R] the EC50 was < 50 nM. With `CCN1C(C(=O)Nc2ccc(F)c(Cl)c2)CC(C(=O)NCc2cnc(C)s2)NS1(=O)=O` (single isomer, unassigned) [Compound 888-ISOMER-A, N3-(3-chloro-4-fluoro-phenyl)-2-ethyl-N5-[(2-methylthiazol-5-yl)methyl]-1,1-dioxo-1,2,6-thiadiazinane-3,5-dicarboxamide] the EC50 was 100 to 10000 nM. In the case of `Cc1nc(-c2ccccc2)sc1CNC(=O)C1CC(C(=O)Nc2ccc(F)c(Cl)c2)N(C)S(=O)(=O)N1` (centres unmarked) [Compound 914], the EC50 is reported as < 50 nM. `Cc1cn(-c2ccccc2)nc1CNC(=O)C1CC(C(=O)Nc2ccc(F)c(C#N)c2)N(C)S(=O)(=O)N1` (single isomer, unassigned) [1134-ISOMER-A, N3-(3-cyano-4-fluoro-phenyl)-2-methyl-N5-[(4-methyl-1-phenyl-pyrazol-3-yl)methyl]-1,1-dioxo-1,2,6-thiadiazinane-3,5-dicarboxamide] was tested, and the EC50 was 100 to 10000 nM. `Cc1nc(-c2ccccc2F)sc1CNC(=O)C1CC(C(=O)Nc2ccc(F)c(Cl)c2)N(C)S(=O)(=O)N1` (single isomer, unassigned) [1016-ISOMER-B, N3-(3-chloro-4-fluoro-phenyl)-N5-[[2-(2-fluorophenyl)-4-methyl-thiazol-5-yl]methyl]-2-methyl-1,1-dioxo-1,2,6-thiadiazinane-3,5-dicarboxamide] showed an EC50 of 50 to 100 nM. `CN1C(C(=O)Nc2ccc(F)c(Cl)c2)CC(C(=O)NCc2sc(-c3ccccc3Cl)nc2C(F)(F)F)NS1(=O)=O` (centres unmarked) [Compound 1064] was tested, and the EC50 was < 50 nM. In the case of `CN1C(C(=O)Nc2ccc(F)c(C#N)c2)CC(C(=O)NC2CC2c2ccccc2)NS1(=O)=O` (centres unmarked) [Compound 826], the EC50 is reported as 100 to 10000 nM. Work on `CN(C)CCCCc1cnn(-c2ncc(CNC(=O)C3CC(C(=O)Nc4ccc(F)c(Cl)c4)N(C)S(=O)(=O)N3)s2)c1` (single isomer, unassigned) [1197-ISOMER-A, N3-(3-chloro-4-fluoro-phenyl)-N5-[[2-[4-[4-(dimethylamino)butyl]pyrazol-1-yl]thiazol-5-yl]methyl]-2-methyl-1,1-dioxo-1,2,6-thiadiazinane-3,5-dicarboxamide] yielded an EC50 of 100 to 10000 nM. `CN1C(C(=O)Nc2ccc(F)c(Cl)c2)CC(C(=O)NCc2ccccc2Br)NS1(=O)=O` (centres unmarked) [Compound 821] was tested, and the EC50 was < 50 nM. `CN1C(C(=O)Nc2ccc(F)c(Cl)c2)CC(C(=O)NCc2ncc(-c3ccc(F)cc3)s2)NS1(=O)=O` (centres unmarked) [Compound 1153] was tested, and the EC50 was < 50 nM. For `CN1C(C(=O)Nc2ccc(F)c(Cl)c2)CC(C(=O)NCc2cnc(-c3ccc(F)cc3)s2)NS1(=O)=O` (single isomer, unassigned) [Compound 916-ISOMER-A, N3-(3-chloro-4-fluoro-phenyl)-N5-[[2-(4-fluorophenyl)thiazol-5-yl]methyl]-2-methyl-1,1-dioxo-1,2,6-thiadiazinane-3,5-dicarboxamide], the EC50 was 100 to 10000 nM. With `Cc1cccc(CNC(=O)C2CC(C(=O)Nc3ccc(F)c(Cl)c3)N(C)S(=O)(=O)N2)n1` (centres unmarked) [Compound 716] the EC50 was < 50 nM. Work on `CN1C(C(=O)Nc2ccc(F)c(Cl)c2)CC(C(=O)NC(c2ccccc2)c2cnc(-c3ccccc3Cl)s2)NS1(=O)=O` (centres unmarked) [Compound 1068] yielded an EC50 of 50 to 100 nM. `CN1C(C(=O)Nc2ccc(F)c(Cl)c2)CC(C(=O)NCC2CCN(c3ccccn3)CC2)NS1(=O)=O` (centres unmarked) [Compound 961] was tested, and the EC50 was 100 to 10000 nM. With `CN1C(C(=O)Nc2ccc(F)c(Cl)c2)CC(C(=O)NC2CCN(c3ccnc(Cl)c3)CC2)NS1(=O)=O` (centres unmarked) [Compound 1012] the EC50 was < 50 nM. With `CN1C(C(=O)Nc2ccc(F)c(Cl)c2)CC(C(=O)NCc2cnc(-c3ccccc3)s2)NS1(=O)=O` (centres unmarked) [Compound 691] the EC50 was < 50 nM. With `CN1C(C(=O)Nc2ccc(F)c(Cl)c2)CC(C(=O)NCc2cnc(-c3ccc(C#N)cc3F)s2)NS1(=O)=O` (centres unmarked) [Compound 920] the EC50 was < 50 nM. With `COC(=O)N1CCC(NC(=O)C2CC(C(=O)Nc3ccc(F)c(Cl)c3)N(C)S(=O)(=O)N2)CC1` (centres unmarked) [Compound 477] the EC50 was < 50 nM. `CN1C(C(=O)Nc2ccc(F)c(Cl)c2)CC(C(=O)NC2CC2c2ccccc2)NS1(=O)=O` (centres unmarked) [Compound 476] showed an EC50 of 50 to 100 nM. With `CN1C(C(=O)Nc2ccc(F)c(Cl)c2)CC(C(=O)NCc2ccn(-c3ccccc3)n2)NS1(=O)=O` (centres unmarked) [Compound 991] the EC50 was < 50 nM. `CN1C(C(=O)Nc2ccc(F)c(Cl)c2)CC(C(=O)N[C@@H](c2ccccc2)c2cnc(-c3ccccc3)s2)NS1(=O)=O` (single isomer, unassigned) [1067-ISOMER-B] showed an EC50 of 100 to 10000 nM. For `CN1C(C(=O)Nc2ccc(F)c(Cl)c2)CC(C(=O)NCc2ncc(-c3ccc(O)cc3)s2)NS1(=O)=O` (centres unmarked) [Compound 1009], the EC50 was < 50 nM. `Cc1nc(-c2ccccc2Cl)sc1C(NC(=O)C1CC(C(=O)Nc2ccc(F)c(Cl)c2)N(C)S(=O)(=O)N1)c1ccccc1` (centres unmarked) [Compound 1100] gave an EC50 of 50 to 100 nM. With `CN1C(C(=O)Nc2ccc(F)c(Cl)c2)CC(C(=O)NCc2sc(-c3ccccc3F)nc2C(F)(F)F)NS1(=O)=O` (centres unmarked) [Compound 1082] the EC50 was < 50 nM. `CCN1C(C(=O)Nc2ccc(F)c(Cl)c2)CC(C(=O)NCc2cnc(C)s2)NS1(=O)=O` (centres unmarked) [Compound 888] gave an EC50 of 100 to 10000 nM. With `CN1C(C(=O)Nc2ccc(F)c(Cl)c2)CC(C(=O)NCc2cnc(-c3cscn3)s2)NS1(=O)=O` (centres unmarked) [Compound 929] the EC50 was < 50 nM.
